Test results from PMC6554663, “Pharmaceutical Effects of Inhibiting the Soluble Epoxide Hydrolase in Canine Osteoarthritis” (Frontiers in Pharmacology, 2019).

Test system: Canine chondrocytes (CnC)
Experiment: IL1β induced chondrocyte cytotoxicity (Alamar Blue)
Format: cell-based
Details: meloxicam 1 μg/mL, EET 0.4 μg/mL total, 48 h
Description: Canine chondrocytes (CnC) were purchased from Cell Applications, Inc. […] Cells were kept at room temperature and monitored for detachment (∼2 min). Detached cells were added to 3× volume of full growth media and centrifuged to remove trypsin. Cells were reseeded at a concentration of 15,000 cells/cm^2 to reach 80% confluence in 3 days. Cells were expanded and frozen at the third passage in CGS containing 10% DMSO. For individual experiments, fresh cells were thawed and used at passage 5. Canine chondrocytes cells were plated in 96-well plates at a density of 15,000 cells/cm^2. Optimal cell number was predetermined by a cell seeding experiment outlined in [O'Brien et al. […] After 2 h, the IL1β treated media was aspirated and replaced with complete growth media supplemented with either vehicle (0.1% ethanol), regioisomers of EETs, or meloxicam for 48-h before assessing inflammatory cytokines and cytotoxicity. Cells were also pretreated with meloxicam or EET mixture 30 min prior to adding IL1β treatment for 2-h. After IL1β was removed, treatments were added to complete growth media for 48-h as described above. Treatment conditions are described in the Section “Results.” After the CnC cells were treated for 48-h under conditions described above, the media was removed and replaced with complete media containing 10% Alamar Blue (Life Technologies, catalog number DAL1025). The Alamar Blue assay relies on the metabolism of non-fluorescent resazurin to the highly fluorescent resorufin by healthy cells. Fluorescent intensity can be used to track cytotoxicity after xenobiotic treatments ([Larson et al., 1997]). After the addition of Alamar Blue, plates were protected from light and incubated at […] in a 5% CO2 atmosphere for 8 h. The conversion of resazurin was monitored by reading fluorescence at 570 excitations and 585 emission on a plate reader (Tecan […]) and cytotoxicity was calculated as the ratio of fluorescence from treated cells to non-treated controls.

## Cc1cnc(NC(=O)C2=C(O)c3ccccc3S(=O)(=O)N2C)s1 [Meloxicam]
10 ng/mL IL1β 2 h
  IL1β induced cytotoxicity, treatment added after IL1β: did not result in significant reduction in cytotoxicity
  IL1β induced cytotoxicity, treatment added before IL1β: significantly reduced
Absence of IL1β
  effect on healthy CnC cells (cytotoxicity, Alamar Blue): no effect
